Experimental data reported in US12582625B2, “Methods for treating neuroblastoma” (priority 2015, dated 2026).
Values joined by “and” are separate entries in the source; they are usually repeats but may differ in a detail not shown here. Equal entries are not always repeated. “Also recorded” adds a separate entry of the source.

Columns and labels:
[1] = test system: urinary polyamines; assay: NMTRC 002: urinary polyamine levels during DFMO therapy; type: in vivo, human
Method: Urinary Polyamine Levels. Patients were consented for urine analysis in NMTRC 002. […] Polyamines with at least one free primary amine were quantified using reverse-phase high-performance liquid chromatography (HPLC) as previously described (Thompson et al., 2010). Urinary N^1,N^12-diacetylspermine (N^1,N^12-Ac2Spm or DAS) was determined using the auto DAS reagent kit (Alfresa Pharma Co., Osaka, Japan), according to the manufacturer's instructions. The assay involves the specific binding between a bovine serum albumin-acetylspermine conjugate, as a DAS mimic, and colloidal gold antibody complexes, and has been previously described (Kawakita et al., 2011).

[2] = adults; cited from earlier work
[3] = test system: refractory or relapsed neuroblastoma; assay: NMTRC 002: tumor response and progression free survival; type: in vivo, human; settings: for PFS (days), individual patients: DFMO alone cycle 1, then with etoposide; for Status or Reason off study, individual patients: PF = progression free, PD = progressive disease
Method: Study Design and Treatment.
Tumor and clinical responses were monitored as secondary endpoints. Eighteen subjects were evaluated for efficacy. This study used the (RECIST) Response Evaluation Criteria measurements in Solid Tumor from the NCI (27) modified for pediatrics as well as MIBG or PET and bone marrow response. Tumor assessments/imaging studies were obtained at baseline>7 days from prior therapy and <21 days from the start of study therapy. These were repeated at the end of the first cycle and again after every other cycle.

[4] = test system: tumors harboring Ki-ras mutations; settings: AOM-treated rats, reduced from 90% (Singh et al., 1994); cited from earlier work
[5] = test system: tumor putrescine levels; settings: eflornithine infusion, without suppressing peripheral platelet counts; cited from earlier work
[6] = ODC SNP rs2302615 genotype Any A
[7] = ODC SNP rs2302616 genotype Any T

With NCCCC(N)(C(=O)O)C(F)F (centres unmarked) [DFMO, 2,5-diamino-2-(difluoromethyl) pentanoic acid] the “DAS increase from Cycle 1 Day 1, individual patients” value (from here on “DAS increase”) ([1]; DFMO dose 500 mg/m^2 BID) was “Yes and No”, the “UPA Cycle 1 Day 8 (sum of putrescine, N1AcSpd, N8AcSpd and DAS), individual patients” value ([1]; DFMO dose 500 mg/m^2 BID) was 4.20 and 15.70 and 11.69 and the “DAS increase” value ([1]; DFMO dose 750 mg/m^2 BID) was “No (2×) and Yes (3×)”. For the same compound, the “UPA Cycle 1 Day 8 (sum of putrescine, N1AcSpd, N8AcSpd and DAS), individual patients” value ([1]; DFMO dose 750 mg/m^2 BID) was 7.80 and 22.08 and 1.94 and 13.46, the “DAS increase” value ([1]; DFMO dose 1000 mg/m^2 BID) was “No and Yes (2×)” and the “UPA Cycle 1 Day 8 (sum of putrescine, N1AcSpd, N8AcSpd and DAS), individual patients” value ([1]; DFMO dose 1000 mg/m^2 BID) was 8.71 and 3.89 and 3.28. The “DAS increase” value ([1]; DFMO dose 1500 mg/m^2 BID) was “Yes (4×) and No (3×)”, the “UPA Cycle 1 Day 8 (sum of putrescine, N1AcSpd, N8AcSpd and DAS), individual patients” value ([1]; DFMO dose 1500 mg/m^2 BID) was 5.61 and 3.98 and 6.99 and 3.77 and 8.81 and 7.38 and 5.93 and the “UPA (C1D1 − C8D1)/C1D1 × 100” value [1, 6] was 0.66 ± 92.00. For the same compound, the “UPA (C1D1 − C8D1)/C1D1 × 100” value ([1]; ODC SNP rs2302615 genotype GG) was 23.26 ± 35.59, the “UPA (C1D1 − C8D1)/C1D1 × 100” value [1, 7] was 48.32 ± 18.24 and the “UPA (C1D1 − C8D1)/C1D1 × 100” value ([1]; ODC SNP rs2302616 genotype GG) was −24.46 ± 83.67. For the same compound, the “increase of urinary polyamine levels from baseline” value ([1]; after one week of DFMO therapy, GG genotype at rs2302616) was roughly 25%, the “decrease of urinary polyamine levels from baseline” value ([1]; after one week of DFMO therapy, minor T allele at rs2302616) was roughly 50% and the “change in urinary N^1AcSpd between Day 8 and 15” value ([1]; cycle 1, N=16 patients with complete data, P=1.000) was “No change”. For the same compound, the “patients with increased urinary DAS” value ([1]; disease progression within 100 days of therapy start) was 9/10, the “urinary N^1AcSpd contents” value ([1]; first two weeks of treatment, population as a whole) was “reduced” and the “average decrease of urinary polyamines from baseline” value ([1]; patients with disease progression after 100 days from start of therapy) was 1.57±3.37 μmol/g Creatinine. The “average increase of total urinary polyamines (putrescine+N^1AcSpd+N^8AcSpd+DAS) from baseline” value ([1]; patients with disease progression less than 100 days after start of therapy) was 6.56±16.29 μmol/g Creatinine, the “patients with increased urinary DAS” value ([1]; progression free up to 100 days) was 1/7 and the “elimination half-life of DFMO” value [2] was 2 to 4 h. For the same compound, the “patients alive without progression of disease” value ([3]; 2-4.5 years after starting DFMO) was “three subjects remain alive without progression of disease; also recorded: Three patients remain alive without progression of disease”, the “subjects with best response of progressive disease” value ([3]; 18 evaluable subjects) was 5 and the “subjects with best response of stable disease by RECIST” value ([3]; 18 evaluable subjects) was 12. The “patients with best response of PR” value ([3]; 18 evaluable subjects, MIBG evaluable disease only) was 1, the “Best Response (CT/MIBG), individual patients” value ([3]; DFMO dose 500 mg/m^2 BID) was “SD/PR” and the “PFS (days), individual patients” value ([3]; DFMO dose 500 mg/m^2 BID) was 94 days and 1573 days and 1559 days. The “Status or Reason off study, individual patients” value ([3]; DFMO dose 500 mg/m^2 BID) was “Alive (PF)”, the “PFS (days), individual patients” value ([3]; DFMO dose 750 mg/m^2 BID) was 418 days and 103 days and 67 days and 57 days and 31 days and the “PFS (days), individual patients” value ([3]; DFMO dose 1000 mg/m^2 BID) was 239 days and 64 days and 59 days. The “Best Response (CT/MIBG), individual patients” value ([3]; DFMO dose 1500 mg/m^2 BID) was “SD/PR; also recorded: (CT Neg)/PR”, the “PFS (days), individual patients” value ([3]; DFMO dose 1500 mg/m^2 BID) was 663 days and 209 days and 136 days and 62 days (3×) and 21 days and the “Status or Reason off study, individual patients” value ([3]; DFMO dose 1500 mg/m^2 BID) was “Alive (PF) and 2nd Leukemia”. The “mean progression free survival (PFS)” value ([3]; NMTRC 002, all evaluable subjects) was 420 days, the PFS [3, 6] was 282.1 ± 499.6 and the PFS ([3]; ODC SNP rs2302615 genotype GG) was 326.7 ± 501.6. The PFS [3, 7] was 498.0 ± 635.4, the PFS ([3]; ODC SNP rs2302616 genotype GG) was 110.8 ± 119.1 and the “median progression free survival (PFS)” value ([3]; all 18 evaluable subjects, 95% CI: 62-418 days (Saulnier Sholler et al., 2015)) was 80.5 days. The PFS ([3]; patients with GG at rs2302616) was 110 days, the PFS ([3]; patients with any minor T allele at rs2302616) was 498 days and the “response by PET scans” value ([3]; three subjects evaluated by PET) was “two had a complete response and one a partial response”. The “tumors harboring Ki-ras mutations” value [4] was 36% and the “decrease in tumor putrescine levels” value [5] was 90%.
